From US20250332300A1 (priority 2024, published 2025)
Counter-ions that a name gives are not always drawn. Like-named read-outs stand apart in the source and are kept apart here. Positions of bridges follow the written chain, without caps; N, C: chain ends. Non-standard residues stand in square brackets, D forms with d. Residues, ends and D or L forms follow the SMILES beside them. Triazole bridges read from a SMILES are 1,4-linked. Chains are numbered I, II in the order given. *: point of attachment. DOTA = O=C(O)CN1CCN(CC(=O)O)CCN(CC(=O)*)CCN(CC(=O)O)CC1; Trp(5-OH) = N[C@@H](Cc1c[nH]c2ccc(O)cc12)C(=O)O; NMePhe(4-F) = CN[C@@H](Cc1ccc(F)cc1)C(=O)O; Lys(N3) = [N-]=[N+]=NCCCC[C@H](N)C(=O)O; NMehPhe = CN[C@@H](CCc1ccccc1)C(=O)O; NMeAoc(2) = CCCCCC[C@H](NC)C(=O)O; NMeAhp(2) = CCCCC[C@H](NC)C(=O)O; Aad = N[C@@H](CCCC(=O)O)C(=O)O; Gly(cPr) = N[C@H](C(=O)O)C1CC1; NMeK = CN[C@@H](CCCCN)C(=O)O; NMeDap = CN[C@@H](CN)C(=O)O; Pra = C#CC[C@H](N)C(=O)O; Sar = CNCC(=O)O

How the values were obtained:
Assay type in all cases: binding
mouse HER2 (23-653) [1] = target: T1, mouse HER2 (23-653) (Mus musculus, UniProt P70424); assay: Surface plasmon resonance (SPR) for assessment of peptide affinity, mouse HER2; parameters: mouse HER2 (23-653) using a Cy5 labeled peptide as a probe; made in house
Text: Each protein was immobilized either onto a SA sensorchip (Cytiva, BR-1005-31) or CM5 sensorchip (Cytiva, BR-1005-30) to a density of 800-2000 RU.

human HER2 (23-652) [2] = target: T2, human HER2 (23-652) (Homo sapiens, UniProt P04626); assay: Surface plasmon resonance (SPR) for assessment of peptide affinity, human HER2; parameters: towards human HER2 (23-652) and mouse HER2 (23-653); made in house; conditions: SPR, human HER2 extracellular domain, 25° C., 1:1 binding model; read-out: huHER2-SPR-ONC KD
How it was run: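 Binding kinetics fitted from sensorgrams with 280 s peptide association then 3000 s dissociation (30 uL/min), using HER2 (23-652) either directly immobilized (SA/CM5) or anti-Fc-captured; 3 M magnesium chloride used for regeneration.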

mouse HER2 (23-653) [3] = target: T1, mouse HER2 (23-653); assay: TR-FRET competition assay for peptide potency, mouse HER2; parameters: mouse HER2 (23-653) using a Cy5 labeled peptide as a probe; made in house; host or cells: mammalian cells; conditions: 0.1 nM mouse HER2, 24 h incubation
human HER2 (23-652) [4] = target: T2, human HER2 (23-652); assay: TR-FRET competition assay for peptide potency, human HER2; parameters: towards human HER2 (23-652) and mouse HER2 (23-653); made in house; host or cells: mammalian cells; conditions: TR-FRET competition with Cy5 labeled peptide probe, 0.1 nM human HER2, 24 h incubation; read-out: huHER2 TR-FRET IC50
Protocol: Both proteins containing a His-, Avi-tag and biotin in Nterminus, were expressed in mammalian cells and produced in house. […] Standard assay conditions consist of 20 uL total volume in white 384-well plates (Greiner), in 10 mM HEPES buffer containing 150 mM NaCl, 3 mM EDTA, 0.05% Tween20 and 1% final DMSO. […] The ratiometric FRET assay readout is calculated from the ratio of the raw data of the two distinct fluorescence signals measured in time resolved mode (fluorescence 665 nm/fluorescence 620 nm). IC50 values were calculated with the standard Novartis in-house assay data analysis software (Helios software application, Novartis Institutes for BioMedical Research, unpublished) using the methods described in Comput. Methods. Programs. Biomed. 2006, 82, 31-37 (regression algorithms for nonlinear dose-response curve fitting).

[5] = SPR, mouse HER2 extracellular domain, 25° C., 1:1 binding model, read-out: moHER2-SPR-ONC KD
[6] = TR-FRET competition with Cy5 labeled peptide probe, read-out: moHER2 TR-FRET IC50

CCCCC[C@H]1C(=O)N(C)[C@@H](CCCCNC(C)=O)C(=O)N[C@@H](Cc2c[nH]c3ccc(O)cc23)C(=O)N[C@@H](Cc2c[nH]c3ccccc23)C(=O)N[C@@H](C2CC2)C(=O)N(C)[C@H](C(=O)N(C)[C@@H](Cc2ccc(F)cc2)C(N)=O)CNC(=O)CCC[C@H](NC(C)=O)C(=O)N[C@@H](Cc2ccc(O)cc2)C(=O)N[C@@H](CO)C(=O)N1C [Example A14, (3S,6S,9S,12S,15S,18S,21S,24S,27S)-9-((1H-indol-3-yl)methyl)-27-acetamido-15-(4-acetamidobutyl)-N-((S)-1-amino-3-(4-fluorophenyl)-1-oxopropan-2-yl)-6-cyclopropyl-12-((5-hydroxy-1H-indol-3-yl)methyl)-24-(4-hydroxybenzyl)-21-(hydroxymethyl)-N,4,16,19-tetramethyl-5,8,11,14,17,20,23,26,31-nonaoxo-18-pentyl-1,4,7,10,13,16,19,22,25-nonaazacyclohentriacontane-3-carboxamide] (Ac-[Aad]YS[NMeAhp(2)][NMeK](Ac)[Trp(5-OH)]W[Gly(cPr)][NMeDap][NMePhe(4-F)]-NH2; lactam 1-9)
Kd (mouse HER2 (23-653) [1]; [5]): 1.2 nM
Kd (human HER2 (23-652) [2]): 1.3 nM
IC50 (mouse HER2 (23-653) [3]; [6]): 3.7 nM

CCCCCC[C@H]1C(=O)N(C)[C@@H](CCCCNC(C)=O)C(=O)N[C@@H](Cc2c[nH]c3ccc(O)cc23)C(=O)N[C@@H](Cc2c[nH]c3ccccc23)C(=O)N[C@@H](C2CC2)C(=O)N(C)[C@H](C(=O)N(C)[C@@H](Cc2ccc(F)cc2)C(N)=O)CNC(=O)CCC[C@H](NC(C)=O)C(=O)N[C@@H](Cc2ccc(O)cc2)C(=O)N[C@@H](CO)C(=O)N1C [Example A20, (3S,6S,9S,12S,15S,18S,21S,24S,27S)-9-((1H-indol-3-yl)methyl)-27-acetamido-15-(4-acetamidobutyl)-N-((S)-1-amino-3-(4-fluorophenyl)-1-oxopropan-2-yl)-6-cyclopropyl-18-hexyl-12-((5-hydroxy-1H-indol-3-yl)methyl)-24-(4-hydroxybenzyl)-21-(hydroxymethyl)-N,4,16,19-tetramethyl-5,8,11,14,17,20,23,26,31-nonaoxo-1,4,7,10,13,16,19,22,25-nonaazacyclohentriacontane-3-carboxamide] (Ac-[Aad]YS[NMeAoc(2)][NMeK](Ac)[Trp(5-OH)]W[Gly(cPr)][NMeDap][NMePhe(4-F)]-NH2; lactam 1-9)
Kd (mouse HER2 (23-653) [1]; [5]): 2.5 nM
IC50 (mouse HER2 (23-653) [3]; [6]): 4.7 nM

CC(=O)N[C@H]1CCCC(=O)NC[C@@H](C(=O)N(C)[C@@H](Cc2ccc(F)cc2)C(=O)N2CCC[C@H]2C(N)=O)N(C)C(=O)[C@H](C2CC2)NC(=O)[C@H](Cc2c[nH]c3ccccc23)NC(=O)[C@H](Cc2c[nH]c3ccc(O)cc23)NC(=O)[C@H](CO)N(C)C(=O)[C@H](CCc2ccccc2)N(C)C(=O)[C@H](CO)NC(=O)[C@H](Cc2ccc(O)cc2)NC1=O [Example A26, (3S,6S,9S,12S,15S,18S,21S,24S,27S)-9-((1H-indol-3-yl)methyl)-27-acetamido-N-((S)-1-((S)-2-carbamoylpyrrolidin-1-yl)-3-(4-fluorophenyl)-1-oxopropan-2-yl)-6-cyclopropyl-12-((5-hydroxy-1H-indol-3-yl)methyl)-24-(4-hydroxybenzyl)-15,21-bis(hydroxymethyl)-N,4,16,19-tetramethyl-5,8,11,14,17,20,23,26,31-nonaoxo-18-phenethyl-1,4,7,10,13,16,19,22,25-nonaazacyclohentriacontane-3-carboxamide]
Kd (mouse HER2 (23-653) [1]; [5]): 8.4 nM
Kd (human HER2 (23-652) [2]): 11 nM
IC50 (mouse HER2 (23-653) [3]; [6]): 13 nM

CC(=O)NCCCC[C@H]1C(=O)N[C@@H](Cc2c[nH]c3ccc(O)cc23)C(=O)N[C@@H](Cc2c[nH]c3ccccc23)C(=O)N[C@@H](C2CC2)C(=O)N(C)[C@H](C(=O)N(C)[C@@H](Cc2ccc(F)cc2)C(N)=O)CNC(=O)CC[C@H](N)C(=O)N[C@@H](Cc2ccc(O)cc2)C(=O)N[C@@H](CO)C(=O)N(C)[C@@H](CCc2ccccc2)C(=O)N1C [Example A32, (3S,6S,9S,12S,15S,18S,21S,24S,27S)-9-((1H-indol-3-yl)methyl)-15-(4-acetamidobutyl)-27-amino-N-((S)-1-amino-3-(4-fluorophenyl)-1-oxopropan-2-yl)-6-cyclopropyl-12-((5-hydroxy-1H-indol-3-yl)methyl)-24-(4-hydroxybenzyl)-21-(hydroxymethyl)-N,4,16,19-tetramethyl-5,8,11,14,17,20,23,26,30-nonaoxo-18-phenethyl-1,4,7,10,13,16,19,22,25-nonaazacyclotriacontane-3-carboxamide TFA salt]
Kd (mouse HER2 (23-653) [1]): 2.2 nM
IC50 (mouse HER2 (23-653) [3]; moHER2 TR-FRET IC50, TR-FRET competition with Cy5 labeled peptide probe): 2.6 nM

COCCOCCOCCOCCOCCOCCOCCOCCOCCOCCOCCOCCC(=O)N[C@H]1CCCC(=O)NC[C@@H](C(=O)N(C)[C@@H](Cc2ccc(F)cc2)C(=O)N[C@@H](CCCCNC(=O)CN2CCN(CC(=O)O)CCN(CC(=O)O)CCN(CC(=O)O)CC2)C(N)=O)N(C)C(=O)[C@H](C2CC2)NC(=O)[C@H](Cc2c[nH]c3ccccc23)NC(=O)[C@H](Cc2c[nH]c3ccc(O)cc23)NC(=O)[C@H](CCCCNC(C)=O)N(C)C(=O)[C@H](CCc2ccccc2)N(C)C(=O)[C@H](CO)NC(=O)[C@H](Cc2ccc(O)cc2)NC1=O [Example C2]
Kd (mouse HER2 (23-653) [1]; [5]): 0.2 nM

CC(=O)N[C@H]1CCCC(=O)NC[C@@H](C(=O)N(C)[C@@H](Cc2ccc(F)cc2)C(=O)N[C@@H](CCCCNC(=O)CN2CCN(CC(=O)O)CCN(CC(=O)O)CCN(CC(=O)O)CC2)C(N)=O)N(C)C(=O)[C@H]([C@H](C)O)NC(=O)[C@H](Cc2c[nH]c3ccccc23)NC(=O)[C@H](Cc2c[nH]c3ccc(O)cc23)NC(=O)[C@H](CCCCNC(=O)CO)N(C)C(=O)[C@H](CCc2ccccc2)N(C)C(=O)[C@H](CO)NC(=O)[C@H](Cc2ccc(O)cc2)NC1=O [Example C21]
Kd (mouse HER2 (23-653) [1]; [5]): 0.7 nM
Kd (human HER2 (23-652) [2]): 0.3 nM

CC(=O)NCCCC[C@H]1C(=O)N[C@@H](Cc2c[nH]c3ccc(O)cc23)C(=O)N[C@@H](Cc2c[nH]c3ccccc23)C(=O)N[C@@H]([C@H](C)O)C(=O)N(C)[C@H](C(=O)N(C)[C@@H](Cc2ccc(F)cc2)C(=O)N[C@@H](CCCCNC(=O)N2CCN(CC(=O)O)CC2)C(N)=O)CNC(=O)CC[C@H](NC(=O)CN2CCN(CC(=O)O)CCN(CC(=O)O)CCN(CC(=O)O)CC2)C(=O)N[C@@H](Cc2ccc(O)cc2)C(=O)N[C@@H](CO)C(=O)N(C)[C@@H](CCc2ccccc2)C(=O)N1C [Example C27]
Kd (mouse HER2 (23-653) [1]; [5]): 54 nM
IC50 (mouse HER2 (23-653) [3]; [6]): 57 nM

CC(=O)NCCCC[C@H]1C(=O)N[C@@H](Cc2c[nH]c3ccc(O)cc23)C(=O)N[C@@H](Cc2c[nH]c3ccccc23)C(=O)N[C@@H](C2CC2)C(=O)N(C)[C@H](C(=O)N(C)[C@@H](Cc2ccc(F)cc2)C(=O)N[C@@H](CCCCNC(=O)CC[C@H](C(=O)O)N2CCN(CC(=O)O)CCN(CC(=O)O)CCN(CC(=O)O)CC2)C(N)=O)CNC(=O)CCC[C@H](NC(C)=O)C(=O)N[C@@H](Cc2ccc(O)cc2)C(=O)N[C@@H](CO)C(=O)N(C)[C@@H](CCc2ccccc2)C(=O)N1C [Example C33]
Kd (mouse HER2 (23-653) [1]; [5]): < 0.1 nM

I: Ac-[Pra][Sar][Sar][Sar][Sar][Sar][Sar][Sar][Sar][Sar][Sar][Sar][Sar][Sar][Sar]K(DOTA)[Sar][Sar][Sar][Sar][Sar][Sar][Sar][Sar][Sar][Sar][Sar][Sar][Sar][Sar][Pra]-NH2 / II: Ac-[Aad]YS[NMehPhe][NMeK](Ac)[Trp(5-OH)]W[Gly(cPr)][NMeDap][NMePhe(4-F)][Lys(N3)]-NH2 / III: Ac-[Aad]YS[NMehPhe][NMeK](Ac)[Trp(5-OH)]W[Gly(cPr)][NMeDap][NMePhe(4-F)][Lys(N3)]-NH2 (triazole I:1-II:11, I:31-III:11; lactam II:1-II:9, III:1-III:9) [Example C4]
Kd (human HER2 (23-652) [2]): < 0.1 nM
IC50 (human HER2 (23-652) [4]): 0.1 nM
IC50 (mouse HER2 (23-653) [3]; [6]): 0.4 nM
